Assay results reported in patent US20250295646A1, “METHODS OF USE OF T-TYPE CALCIUM CHANNEL MODULATORS” (Praxis Precision Medicines, Inc., priority 2022, published 2025).
Like-named read-outs stand apart in the source and are kept apart here.

Tests used:
Assay type in all cases: in vivo, human
[1] = system: adult patients with essential tremor; test: Essential tremor trial Example 16 Part A (open label 20-40 mg): TETRAS efficacy; settings: for TETRAS CULS Score CFB LS Mean / TETRAS PS Item 6: Archimedes Spiral (Left) Score CFB LS Mean / TETRAS PS Item 6: Archimedes Spiral (Right) Score CFB LS Mean / TETRAS PS Item 7: Handwriting Score CFB LS Mean / TETRAS PSTS Score CFB LS Mean / TETRAS ULS Score CFB LS Mean / TETRAS CULS CTA LS Mean % / TETRAS PS Item 6: Archimedes Spiral (Left) CTA LS Mean % / TETRAS PS Item 6: Archimedes Spiral (Right) CTA LS Mean % / TETRAS PS Item 7: Handwriting CTA LS Mean % / TETRAS PSTS CTA LS Mean % / TETRAS ULS CTA LS Mean %: FAS
Protocol: A two part trial (Part A and Part B as described below) was conducted to study the efficacy, safety, tolerability, and pharmacokinetics of the compound of formula (I) in adult patients with essential tremor (ET).
Participants were males and females ages 18 and older with a clinical diagnosis of ET. Participants who have a history of any other medical, neurological, or psychiatric condition that may explain or cause tremor were excluded. Participants who have previously received treatment with formula (I) in any clinical trial (including Part A of the current trial for participants enrolling in Part B) were also excluded.
In Part A, an open label trial was conducted.

[2] = system: sigma band EEG power during NREM sleep; test: EEG/PSG: sigma band EEG power during NREM sleep; settings: for NREM Sigma Power Ratio from Baseline / NREM sigma power from baseline, LS Means: N = 10
Protocol: The effects of multiple doses of a wider dose range (Part A: 5, 10, 20 mg; Part B: 60, 80, 100, 120 mg) on sigma band EEG power during NREM sleep were also evaluated as part of the protocol described in Example 11, above. 24-hour EEG/PSG recordings were performed the day before dosing (baseline day) and after dosing on Days 4, 8, and 12 (for Part A) or Days 10, 17, 24, and 31 (for Part B). Part B also included placebo-treated participants for statistical comparisons.
The pharmacokinetic/pharmacodynamic (PKPD) effects of administration a compound of formula (II) on EEG were also evaluated. The recording of the NREM sigma absolute power was reported as a single summary value of a single night of sleep following each dose on pre-specified days (baseline and Days 4, 8 and 12 for Example 11, Part A and Days 10, 17, 24, and 31 for Part B, as set forth in Tables 22 and 23, above. Each NREM sigma absolute power value was paired with a model predicted average plasma concentration (Cave) that corresponded to the 24-hour EEG recording period on the respective study day. For example, if the period of EEG recording for an individual was from 6 am on Day 4 to 6 am on Day 5, then the corresponding Cave was calculated as the average of the individual's model-predicted concentrations (sampled every 30 minutes) from that same time period. The resulting PKPD data were analyzed in a mixed-effects modelling framework using NONlinear Mixed Effects Modeling (NONMEM) software. The change from baseline NREM sigma absolute power was specified as the outcome and the primary explanatory variable was the Cave of a compound of formula (II).
(§1) The population PK model was used to generate Cave for NREM sigma absolute power and concentrations for EO and EC gamma absolute power. For NREM sigma absolute power, the Cave was computed for the final day of each dose level over the EEG collection interval. For EO and EC gamma absolute power, concentrations at 4 hours post-dose and 23.75 hours post-dose were generated on the final day of each dose level. The final population PKPD models for NREM sigma absolute power and EO and EC gamma absolute power were then used to generate corresponding EEG responses.

gamma band EEG power = test: qEEG: eyes open / eyes closed gamma band power; settings: Part B, beginning at 60 mg through 120 mg
Description: It appears a maximal effect in gamma reduction was not achieved.
The eyes open (EO) and eyes closed (EC) gamma absolute power for each individual was also estimated at specific time points across the study days.
as §1

[3] = Food effect (high-fat, high-calorie meal) on pharmacokinetics, single 20 mg dose; settings: for Tmax / AUC(0-t) / AUC(0-inf) / Cmax: human, plasma, 20 mg; for Tmax: oral, single 20 mg; for AUC(0-t) / AUC(0-inf) / Cmax: po
Protocol: The effect of a high-fat, high-calorie meal on the pharmacokinetics of a compound of formula (II) was evaluated in an open-label, sequential fashion following a single 20 mg dose of formulation 5 in participants who had previously received a 20 mg dose of formulation 5 under fasted conditions.

[4] = Day 7, change from pre-dose baseline
[5] = Day 7, change in tremor amplitude from pre-dose baseline
[6] = Day 14, change from pre-dose baseline
[7] = Day 14, change in tremor amplitude from pre-dose baseline
[8] = Day 21 (FU Assessment), change from pre-dose baseline
[9] = Day 21 (FU Assessment), change in tremor amplitude from pre-dose baseline

Structure (SMILES): CC(C)(C)NC(=O)CN1CCC(CNC(=O)c2cc(F)cc(Cl)c2)CC1 [compound of formula (I), N-((1-(2-(tert-butylamino)-2-oxoethyl)piperidin-4-yl)methyl)-3-chloro-5-fluorobenzamide]
- TETRAS combined upper limb score, LS mean change from pre-dose baseline ([1]; Day 7): −1.667
- TETRAS upper limb score, LS mean change from pre-dose baseline ([1]; Day 7): −1.427
- reduction in combined upper limb tremor amplitude ([1]; Day 7): 16.0%
- reduction in upper limb tremor amplitude ([1]; Day 7): 23.9%
- TETRAS combined upper limb score, LS mean change from pre-dose baseline ([1]; Day 14): −4.239
- TETRAS upper limb score, LS mean change from pre-dose baseline ([1]; Day 14): −2.912
- reduction in combined upper limb tremor amplitude ([1]; Day 14): 35.8%
- reduction in upper limb tremor amplitude ([1]; Day 14): 42.8%
- TETRAS combined upper limb score, LS mean change from pre-dose baseline ([1]; Day 21 follow-up): −0.278
- reduction in combined upper limb tremor amplitude ([1]; Day 21 follow-up): 2.9%
- reduction in upper limb tremor amplitude ([1]; Day 21 follow-up): 20.3%
- TETRAS upper limb score, LS mean change from pre-dose baseline ([1]; Day 21 follow-up (1 week after cessation)): −1.183
- TETRAS CULS Score CFB LS Mean [1, 4]: −1.667
- TETRAS PS Item 6: Archimedes Spiral (Left) Score CFB LS Mean [1, 4]: −0.213
- TETRAS PS Item 6: Archimedes Spiral (Right) Score CFB LS Mean [1, 4]: −0.091
- TETRAS PS Item 7: Handwriting Score CFB LS Mean [1, 4]: −0.012
- TETRAS PSTS Score CFB LS Mean [1, 4]: −1.990
- TETRAS ULS Score CFB LS Mean [1, 4]: −1.427
- TETRAS CULS CTA LS Mean % [1, 5]: −16.0%
- TETRAS PS Item 6: Archimedes Spiral (Left) CTA LS Mean % [1, 5]: −21.8%
- TETRAS PS Item 6: Archimedes Spiral (Right) CTA LS Mean % [1, 5]: −9.9%
- TETRAS PS Item 7: Handwriting CTA LS Mean % [1, 5]: −1.4%
- TETRAS PSTS CTA LS Mean % [1, 5]: −13.3%
- TETRAS ULS CTA LS Mean % [1, 5]: −23.9%
- TETRAS CULS Score CFB LS Mean [1, 6]: −4.239
- TETRAS PS Item 6: Archimedes Spiral (Left) Score CFB LS Mean [1, 6]: −0.468
- TETRAS PS Item 6: Archimedes Spiral (Right) Score CFB LS Mean [1, 6]: −0.346
- TETRAS PS Item 7: Handwriting Score CFB LS Mean [1, 6]: −0.348
- TETRAS PSTS Score CFB LS Mean [1, 6]: −5.163
- TETRAS ULS Score CFB LS Mean [1, 6]: −2.912
- TETRAS CULS CTA LS Mean % [1, 7]: −35.8%
- TETRAS PS Item 6: Archimedes Spiral (Left) CTA LS Mean % [1, 7]: −41.7%
- TETRAS PS Item 6: Archimedes Spiral (Right) CTA LS Mean % [1, 7]: −32.9%
- TETRAS PS Item 7: Handwriting CTA LS Mean % [1, 7]: −33.0%
- TETRAS PSTS CTA LS Mean % [1, 7]: −31.0%
- TETRAS ULS CTA LS Mean % [1, 7]: −42.8%
- TETRAS CULS Score CFB LS Mean [1, 8]: −0.278
- TETRAS PS Item 6: Archimedes Spiral (Left) Score CFB LS Mean [1, 8]: 0.201
- TETRAS PS Item 6: Archimedes Spiral (Right) Score CFB LS Mean [1, 8]: −0.061
- TETRAS PS Item 7: Handwriting Score CFB LS Mean [1, 8]: 0.330
- TETRAS PSTS Score CFB LS Mean [1, 8]: −1.293
- TETRAS ULS Score CFB LS Mean [1, 8]: −1.183
- TETRAS CULS CTA LS Mean % [1, 9]: −2.9%
- TETRAS PS Item 6: Archimedes Spiral (Left) CTA LS Mean % [1, 9]: 20.7%
- TETRAS PS Item 6: Archimedes Spiral (Right) CTA LS Mean % [1, 9]: −6.7%
- TETRAS PS Item 7: Handwriting CTA LS Mean % [1, 9]: 31.6%
- TETRAS PSTS CTA LS Mean % [1, 9]: −8.9%
- TETRAS ULS CTA LS Mean % [1, 9]: −20.3%

Structure (SMILES): CC(C)(C)NC(=O)CN1CCC(CNC(=O)c2cc(F)cc(Cl)c2)CC1.Cl [compound of formula (II), N-((1-(2-(tert-butylamino)-2-oxoethyl)piperidin-4-yl)methyl)-3-chloro-5-fluorobenzamide hydrochloride]
- sigma band EEG power during NREM sleep, change from baseline ([2]; 5-120 mg, plateaued after Day 17 (80 mg)): dose-dependent decrease
- NREM sigma power, Formula (II) v. Placebo Difference ([2]; Day 10): −0.597
- NREM sigma power, Formula (II) v. Placebo Ratio ([2]; Day 10): 0.550
- NREM Sigma Power Ratio from Baseline ([2]; Day 10 (60 mg)): 0.581
- NREM sigma power from baseline, LS Means ([2]; Day 10 (60 mg)): −0.542
- NREM sigma power, Formula (II) v. Placebo Difference ([2]; Day 17): −0.697
- NREM sigma power, Formula (II) v. Placebo Ratio ([2]; Day 17): 0.498
- NREM Sigma Power Ratio from Baseline ([2]; Day 17 (80 mg)): 0.646
- NREM sigma power from baseline, LS Means ([2]; Day 17 (80 mg)): −0.437
- NREM sigma power, Formula (II) v. Placebo Difference ([2]; Day 24): −0.729
- NREM sigma power, Formula (II) v. Placebo Ratio ([2]; Day 24): 0.482
- NREM Sigma Power Ratio from Baseline ([2]; Day 24 (100 mg)): 0.498
- NREM sigma power from baseline, LS Means ([2]; Day 24 (100 mg)): −0.698
- NREM sigma power, Formula (II) v. Placebo Difference ([2]; Day 31): −0.679
- NREM sigma power, Formula (II) v. Placebo Ratio ([2]; Day 31): 0.507
- NREM Sigma Power Ratio from Baseline ([2]; Day 31 (120 mg)): 0.574
- NREM sigma power from baseline, LS Means ([2]; Day 31 (120 mg)): −0.556
- gamma band EEG power (gamma band EEG power): dose-related reduction
- Tmax ([3]; fasted): 4 h
- Tmax ([3]; high-fat, high-calorie meal): 5 h
- AUC(0-t) ([3]; single 20 mg oral dose, fasted, read-out: AUClast, Fasted Geometric Mean (Adjusted)): 905 ng·h/mL
- AUC(0-inf) ([3]; single 20 mg oral dose, fasted, read-out: AUC∞, Fasted Geometric Mean (Adjusted)): 942 ng·h/mL
- Cmax ([3]; single 20 mg oral dose, fasted, read-out: Cmax, Fasted Geometric Mean (Adjusted)): 43.6 ng/mL
- AUC(0-t) ([3]; single 20 mg oral dose, high-fat/high-calorie meal, read-out: AUClast, Fed Geometric Mean (Adjusted)): 1040 ng·h/mL
- AUC(0-inf) ([3]; single 20 mg oral dose, high-fat/high-calorie meal, read-out: AUC∞, Fed Geometric Mean (Adjusted)): 1080 ng·h/mL
- Cmax ([3]; single 20 mg oral dose, high-fat/high-calorie meal, read-out: Cmax, Fed Geometric Mean (Adjusted)): 64.7 ng/mL
- AUClast Ratio (fed/fasted) ([3]; single 20 mg oral dose): 1.14
- AUC∞ Ratio (fed/fasted) ([3]; single 20 mg oral dose): 1.15
- Cmax Ratio (fed/fasted) ([3]; single 20 mg oral dose): 1.49
